Reference: ChEMBL document CHEMBL1649545, “Efficacy of triazoles in a murine disseminated infection by Candida krusei” (2009)
Values after ≈ are worked out from the molar mass of the structure shown. Active and inactive are the calls of the source. No cut-off for these calls is given here.

How the values were obtained:
Pichia kudriavzevii [1] = test: Antifungal activity against 5 x 10^7 CFU Candida krusei FMR9728 infected OF1 mouse disseminated infection model assessed as prolongation of mouse survival at 100 mg/kg/day, po for 5 days administered 24 hrs postinfection measured daily for 15 days; format: functional, organism-based
Pichia kudriavzevii [2] = test: Antifungal activity against Candida krusei FMR9728 by M27-A2 broth dilution method; format: functional
Pichia kudriavzevii [3] = test: Antifungal activity against Candida krusei FMR9728 infected OF1 mouse disseminated infection model assessed as reduction in spleen tissue fungal burden at 100 mg/kg/day, po for 5 days administered 24 hrs postinfection measured after 24 hrs post treatment relative to control; format: functional, organism-based
Pichia kudriavzevii [4] = test: Antifungal activity against Candida krusei FMR9729 infected OF1 mouse disseminated infection model assessed as reduction in spleen tissue fungal burden at 50 mg/kg/day, po for 5 days administered 24 hrs postinfection measured after 24 hrs post treatment relative to control; format: functional, organism-based
Pichia kudriavzevii [5] = test: Antifungal activity against 5 x 10^7 CFU Candida krusei FMR9728 infected OF1 mouse disseminated infection model assessed as prolongation of mouse survival at 50 mg/kg/day, po for 5 days administered 24 hrs postinfection measured daily for 15 days; format: functional, organism-based
Pichia kudriavzevii [6] = test: Antifungal activity against Candida krusei FMR9729 infected OF1 mouse disseminated infection model assessed as reduction in kidney tissue fungal burden at 100 mg/kg/day, po for 5 days administered 24 hrs postinfection measured after 24 hrs post treatment relative to control; format: functional, organism-based
Pichia kudriavzevii [7] = test: Antifungal activity against Candida krusei FMR9729 infected OF1 mouse disseminated infection model assessed as reduction in kidney tissue fungal burden at 50 mg/kg/day, po for 5 days administered 24 hrs postinfection measured after 24 hrs post treatment relative to control; format: functional, organism-based
Pichia kudriavzevii [8] = test: Antifungal activity against 5 x 10^7 CFU Candida krusei FMR9729 infected OF1 mouse disseminated infection model assessed as prolongation of mouse survival at 100 mg/kg/day, po for 5 days administered 24 hrs postinfection measured daily for 15 days; format: functional, organism-based
Pichia kudriavzevii [9] = test: Antifungal activity against Candida krusei FMR9728 infected OF1 mouse disseminated infection model assessed as reduction in kidney tissue fungal burden at 100 mg/kg/day, po for 5 days administered 24 hrs postinfection measured after 24 hrs post treatment relative to control; format: functional, organism-based
Pichia kudriavzevii [10] = test: Antifungal activity against Candida krusei FMR9728 infected OF1 mouse disseminated infection model assessed as reduction in spleen tissue fungal burden at 50 mg/kg/day, po for 5 days administered 24 hrs postinfection measured after 24 hrs post treatment relative to control; format: functional, organism-based
Pichia kudriavzevii [11] = test: Antifungal activity against Candida krusei FMR9728 infected OF1 mouse disseminated infection model assessed as reduction in kidney tissue fungal burden at 50 mg/kg/day, po for 5 days administered 24 hrs postinfection measured after 24 hrs post treatment relative to control; format: functional, organism-based
Pichia kudriavzevii [12] = test: Antifungal activity against 5 x 10^7 CFU Candida krusei FMR9729 infected OF1 mouse disseminated infection model assessed as prolongation of mouse survival at 50 mg/kg/day, po for 5 days administered 24 hrs postinfection measured daily for 15 days; format: functional, organism-based
Pichia kudriavzevii [13] = test: Antifungal activity against Candida krusei FMR9729 infected OF1 mouse disseminated infection model assessed as reduction in spleen tissue fungal burden at 100 mg/kg/day, po for 5 days administered 24 hrs postinfection measured after 24 hrs post treatment relative to control; format: functional, organism-based
Pichia kudriavzevii [14] = test: Antifungal activity against Candida krusei FMR9729 by M27-A2 broth dilution method; format: functional
Pichia kudriavzevii [15] = test: Antifungal activity against 5 x 10^7 CFU Candida krusei FMR9729 infected OF1 mouse disseminated infection model assessed as prolongation of mouse survival at 40 mg/kg/day, po for 5 days administered 24 hrs postinfection measured daily for 15 days; format: functional, organism-based
Pichia kudriavzevii [16] = test: Antifungal activity against Candida krusei FMR9728 infected OF1 mouse disseminated infection model assessed as reduction in spleen tissue fungal burden at 20 mg/kg/day, iv for 5 days administered 24 hrs postinfection measured after 24 hrs post treatment relative to control; format: functional, organism-based
Pichia kudriavzevii [17] = test: Antifungal activity against Candida krusei FMR9729 infected OF1 mouse disseminated infection model assessed as reduction in spleen tissue fungal burden at 10 mg/kg/day, iv for 5 days administered 24 hrs postinfection measured after 24 hrs post treatment relative to control; format: functional, organism-based
Pichia kudriavzevii [18] = test: Antifungal activity against Candida krusei FMR9728 infected OF1 mouse disseminated infection model assessed as reduction in spleen tissue fungal burden at 10 mg/kg/day, iv for 5 days administered 24 hrs postinfection measured after 24 hrs post treatment relative to control; format: functional, organism-based
Pichia kudriavzevii [19] = test: Antifungal activity against 5 x 10^7 CFU Candida krusei FMR9729 infected OF1 mouse disseminated infection model assessed as prolongation of mouse survival at 10 mg/kg/day, iv for 5 days administered 24 hrs postinfection measured daily for 15 days; format: functional, organism-based
Pichia kudriavzevii [20] = test: Antifungal activity against 5 x 10^7 CFU Candida krusei FMR9728 infected OF1 mouse disseminated infection model assessed as prolongation of mouse survival at 60 mg/kg/day, po for 5 days administered 24 hrs postinfection measured daily for 15 days; format: functional, organism-based
Pichia kudriavzevii [21] = test: Antifungal activity against Candida krusei FMR9729 infected OF1 mouse disseminated infection model assessed as reduction in kidney tissue fungal burden at 20 mg/kg/day, iv for 5 days administered 24 hrs postinfection measured after 24 hrs post treatment relative to control; format: functional, organism-based
Pichia kudriavzevii [22] = test: Antifungal activity against Candida krusei FMR9728 infected OF1 mouse disseminated infection model assessed as reduction in kidney tissue fungal burden at 10 mg/kg/day, iv for 5 days administered 24 hrs postinfection measured after 24 hrs post treatment relative to control; format: functional, organism-based
Pichia kudriavzevii [23] = test: Antifungal activity against 5 x 10^7 CFU Candida krusei FMR9728 infected OF1 mouse disseminated infection model assessed as prolongation of mouse survival at 10 mg/kg/day, iv for 5 days administered 24 hrs postinfection measured daily for 15 days; format: functional, organism-based
Pichia kudriavzevii [24] = test: Antifungal activity against Candida krusei FMR9728 infected OF1 mouse disseminated infection model assessed as reduction in kidney tissue fungal burden at 20 mg/kg/day, iv for 5 days administered 24 hrs postinfection measured after 24 hrs post treatment relative to control; format: functional, organism-based
Pichia kudriavzevii [25] = test: Antifungal activity against Candida krusei FMR9728 infected OF1 mouse disseminated infection model assessed as reduction in spleen tissue fungal burden at 60 mg/kg/day, po for 5 days administered 24 hrs postinfection measured after 24 hrs post treatment relative to control; format: functional, organism-based
Pichia kudriavzevii [26] = test: Antifungal activity against Candida krusei FMR9728 infected OF1 mouse disseminated infection model assessed as reduction in kidney tissue fungal burden at 60 mg/kg/day, po for 5 days administered 24 hrs postinfection measured after 24 hrs post treatment relative to control; format: functional, organism-based
Pichia kudriavzevii [27] = test: Antifungal activity against 5 x 10^7 CFU Candida krusei FMR9728 infected OF1 mouse disseminated infection model assessed as prolongation of mouse survival at 40 mg/kg/day, po for 5 days administered 24 hrs postinfection measured daily for 15 days; format: functional, organism-based
Pichia kudriavzevii [28] = test: Antifungal activity against Candida krusei FMR9729 infected OF1 mouse disseminated infection model assessed as reduction in spleen tissue fungal burden at 60 mg/kg/day, po for 5 days administered 24 hrs postinfection measured after 24 hrs post treatment relative to control; format: functional, organism-based
Pichia kudriavzevii [29] = test: Antifungal activity against Candida krusei FMR9729 infected OF1 mouse disseminated infection model assessed as reduction in kidney tissue fungal burden at 40 mg/kg/day, po for 5 days administered 24 hrs postinfection measured after 24 hrs post treatment relative to control; format: functional, organism-based
Pichia kudriavzevii [30] = test: Antifungal activity against Candida krusei FMR9729 infected OF1 mouse disseminated infection model assessed as reduction in kidney tissue fungal burden at 60 mg/kg/day, po for 5 days administered 24 hrs postinfection measured after 24 hrs post treatment relative to control; format: functional, organism-based
Pichia kudriavzevii [31] = test: Antifungal activity against Candida krusei FMR9729 infected OF1 mouse disseminated infection model assessed as reduction in kidney tissue fungal burden at 10 mg/kg/day, iv for 5 days administered 24 hrs postinfection measured after 24 hrs post treatment relative to control; format: functional, organism-based
Pichia kudriavzevii [32] = test: Antifungal activity against Candida krusei FMR9728 infected OF1 mouse disseminated infection model assessed as reduction in kidney tissue fungal burden at 40 mg/kg/day, po for 5 days administered 24 hrs postinfection measured after 24 hrs post treatment relative to control; format: functional, organism-based
Pichia kudriavzevii [33] = test: Antifungal activity against Candida krusei FMR9729 infected OF1 mouse disseminated infection model assessed as reduction in spleen tissue fungal burden at 20 mg/kg/day, iv for 5 days administered 24 hrs postinfection measured after 24 hrs post treatment relative to control; format: functional, organism-based
Pichia kudriavzevii [34] = test: Antifungal activity against 5 x 10^7 CFU Candida krusei FMR9729 infected OF1 mouse disseminated infection model assessed as prolongation of mouse survival at 20 mg/kg/day, iv for 5 days administered 24 hrs postinfection measured daily for 15 days; format: functional, organism-based
Pichia kudriavzevii [35] = test: Antifungal activity against Candida krusei FMR9728 infected OF1 mouse disseminated infection model assessed as reduction in spleen tissue fungal burden at 40 mg/kg/day, po for 5 days administered 24 hrs postinfection measured after 24 hrs post treatment relative to control; format: functional, organism-based
Pichia kudriavzevii [36] = test: Antifungal activity against Candida krusei FMR9729 infected OF1 mouse disseminated infection model assessed as reduction in spleen tissue fungal burden at 40 mg/kg/day, po for 5 days administered 24 hrs postinfection measured after 24 hrs post treatment relative to control; format: functional, organism-based
Pichia kudriavzevii [37] = test: Antifungal activity against 5 x 10^7 CFU Candida krusei FMR9728 infected OF1 mouse disseminated infection model assessed as prolongation of mouse survival at 20 mg/kg/day, iv for 5 days administered 24 hrs postinfection measured daily for 15 days; format: functional, organism-based
Pichia kudriavzevii [38] = test: Antifungal activity against 5 x 10^7 CFU Candida krusei FMR9729 infected OF1 mouse disseminated infection model assessed as prolongation of mouse survival at 60 mg/kg/day, po for 5 days administered 24 hrs postinfection measured daily for 15 days; format: functional, organism-based

SMILES: CC[C@@H]([C@H](C)O)n1ncn(-c2ccc(N3CCN(c4ccc(OC[C@@H]5CO[C@@](Cn6cncn6)(c6ccc(F)cc6F)C5)cc4)CC3)cc2)c1=O [POSACONAZOLE]
- Activity (Pichia kudriavzevii [1]): Active
- MFC (Pichia kudriavzevii [2]): 1 mg/L (≈ 1.43 µM)
- MIC50 (Pichia kudriavzevii [2]): 0.125 mg/L (≈ 0.178 µM)
- Activity (Pichia kudriavzevii [3]): Active
- Activity (Pichia kudriavzevii [4]): Active
- Activity (Pichia kudriavzevii [5]): Active
- Activity (Pichia kudriavzevii [6]): Active
- Activity (Pichia kudriavzevii [7]): Active
- Activity (Pichia kudriavzevii [8]): Active
- Activity (Pichia kudriavzevii [9]): Active
- Activity (Pichia kudriavzevii [10]): Active
- Activity (Pichia kudriavzevii [11]): Active
- Activity (Pichia kudriavzevii [12]): Active
- Activity (Pichia kudriavzevii [13]): Active
- MFC (Pichia kudriavzevii [14]): 2 mg/L (≈ 2.85 µM)
- MIC50 (Pichia kudriavzevii [14]): 0.25 mg/L (≈ 0.357 µM)

SMILES: C[C@@H](c1ncncc1F)[C@](O)(Cn1cncn1)c1ccc(F)cc1F [VORICONAZOLE]
- Activity (Pichia kudriavzevii [15]): Active
- Activity (Pichia kudriavzevii [16]): inactive
- Activity (Pichia kudriavzevii [17]): inactive
- Activity (Pichia kudriavzevii [18]): inactive
- Activity (Pichia kudriavzevii [19]): Active
- MFC (Pichia kudriavzevii [2]): 16 mg/L (≈ 45.8 µM)
- MIC50 (Pichia kudriavzevii [2]): 0.125 mg/L (≈ 0.358 µM)
- Activity (Pichia kudriavzevii [20]): Active
- Activity (Pichia kudriavzevii [21]): inactive
- Activity (Pichia kudriavzevii [22]): inactive
- Activity (Pichia kudriavzevii [23]): Active
- Activity (Pichia kudriavzevii [24]): inactive
- Activity (Pichia kudriavzevii [25]): Active
- Activity (Pichia kudriavzevii [26]): Active
- Activity (Pichia kudriavzevii [27]): Active
- Activity (Pichia kudriavzevii [28]): Active
- Activity (Pichia kudriavzevii [29]): inactive
- Activity (Pichia kudriavzevii [30]): Active
- Activity (Pichia kudriavzevii [31]): inactive
- Activity (Pichia kudriavzevii [32]): Active
- Activity (Pichia kudriavzevii [33]): inactive
- Activity (Pichia kudriavzevii [34]): Active
- Activity (Pichia kudriavzevii [35]): Active
- Activity (Pichia kudriavzevii [36]): inactive
- Activity (Pichia kudriavzevii [37]): Active
- Activity (Pichia kudriavzevii [38]): Active
- MFC (Pichia kudriavzevii [14]): > 16 mg/L
- MIC50 (Pichia kudriavzevii [14]): 0.25 mg/L (≈ 0.716 µM)
